For test [1], the target named is T1, STRAD/MO25 dimer (His-STRAD C160 and MO25) (Homo sapiens, UniProt Q7RTN6).
T1 sequence (Q7RTN6 59-431): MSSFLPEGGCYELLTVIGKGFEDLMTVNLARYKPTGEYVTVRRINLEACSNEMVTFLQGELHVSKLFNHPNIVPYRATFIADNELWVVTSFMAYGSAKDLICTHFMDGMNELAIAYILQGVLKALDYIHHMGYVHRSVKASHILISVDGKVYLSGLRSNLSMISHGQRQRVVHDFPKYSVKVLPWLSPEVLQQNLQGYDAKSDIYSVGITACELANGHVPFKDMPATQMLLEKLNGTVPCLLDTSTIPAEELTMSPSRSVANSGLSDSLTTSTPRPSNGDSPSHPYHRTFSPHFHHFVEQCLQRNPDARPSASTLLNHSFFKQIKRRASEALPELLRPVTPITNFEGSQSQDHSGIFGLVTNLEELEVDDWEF
T1 sequence (Q9Y376 1-341 partner): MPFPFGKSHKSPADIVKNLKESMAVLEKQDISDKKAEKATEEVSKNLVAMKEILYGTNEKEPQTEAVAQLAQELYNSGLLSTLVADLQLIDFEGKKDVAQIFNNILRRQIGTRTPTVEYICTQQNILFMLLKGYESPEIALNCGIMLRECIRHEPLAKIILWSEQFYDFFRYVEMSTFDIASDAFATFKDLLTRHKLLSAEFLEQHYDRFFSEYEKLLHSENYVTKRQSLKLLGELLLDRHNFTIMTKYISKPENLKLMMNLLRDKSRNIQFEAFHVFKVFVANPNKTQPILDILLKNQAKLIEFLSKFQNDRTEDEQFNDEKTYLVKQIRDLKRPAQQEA
As to the kind of experiment: biochemical. Conditions: read-out: residual occupancy (Average).

For test [2], the target named is T1, STRAD/MO25 dimer (His-STRAD C160 and MO25). As to the kind of experiment: TNP-ATP fluorescence displacement. In kind it is binding. Conditions: 50 μM compound, 5 μM STRAD-MO25, 5 μM TNP-ATP, pH 7.5, room temperature.
Test [3] has the same target. As to the kind of experiment: biochemical. Conditions: read-out: residual occupancy (Average). The source holds these as a separate data set.
Test [4] shares this target. As to the kind of experiment: TNP-ATP fluorescence displacement. Type of test: binding.
A further test has as its target T2, LKB1/STRAD/MO25 trimer (Homo sapiens, UniProt Q7RTN6).
T2 sequence (Q7RTN6 1-431): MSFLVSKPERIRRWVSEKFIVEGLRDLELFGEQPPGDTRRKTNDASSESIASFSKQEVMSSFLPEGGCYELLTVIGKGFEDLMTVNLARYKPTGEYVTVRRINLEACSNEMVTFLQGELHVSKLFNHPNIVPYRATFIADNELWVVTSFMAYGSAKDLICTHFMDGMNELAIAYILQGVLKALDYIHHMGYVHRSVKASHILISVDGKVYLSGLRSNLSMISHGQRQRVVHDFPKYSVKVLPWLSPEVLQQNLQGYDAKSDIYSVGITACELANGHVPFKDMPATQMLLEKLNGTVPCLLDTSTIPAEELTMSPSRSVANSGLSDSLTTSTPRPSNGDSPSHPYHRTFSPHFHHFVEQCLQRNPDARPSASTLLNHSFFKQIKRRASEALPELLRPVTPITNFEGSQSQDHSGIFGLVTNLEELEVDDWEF
T2 sequence (Q15831 1-430 partner): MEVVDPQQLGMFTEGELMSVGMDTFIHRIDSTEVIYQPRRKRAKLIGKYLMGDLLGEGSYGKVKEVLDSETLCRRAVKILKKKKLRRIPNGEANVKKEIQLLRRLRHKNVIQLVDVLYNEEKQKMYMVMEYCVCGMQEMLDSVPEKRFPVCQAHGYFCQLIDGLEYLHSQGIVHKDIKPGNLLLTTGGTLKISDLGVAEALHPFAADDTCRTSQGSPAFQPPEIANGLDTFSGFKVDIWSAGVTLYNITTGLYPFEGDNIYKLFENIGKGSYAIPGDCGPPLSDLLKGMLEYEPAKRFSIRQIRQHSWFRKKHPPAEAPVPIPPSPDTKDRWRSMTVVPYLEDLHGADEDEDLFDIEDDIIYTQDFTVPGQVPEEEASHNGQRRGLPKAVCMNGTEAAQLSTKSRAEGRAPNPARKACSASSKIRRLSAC
T2 sequence (Q9Y376 1-341 partner): T1 sequence (Q9Y376 1-341 partner)
As to the kind of experiment: Caliper mobility-shift kinase assay, Fam-LKBtide. Type of test: biochemical.

Like-named read-outs stand apart in the source and are kept apart here.

The record followed here is paper doi:10.1101/2024.12.17.628051v1 (biorxiv, 2024).

On to `N#CC(C#N)=Cc1ccc(O)c(O)c1` [AG-18], for which, in test [1], the remaining activity at 50 µM stood at 54%. As for `COc1cc(N2CCC(N)CC2)ccc1Nc1ncc(Cl)c(-c2c[nH]c3ccccc23)n1` [AZD3463], the “Residual Occupancy (Average) at 50 μM” value in test [2] came to 0.33 ± 0.02 fraction. In the case of `CCOc1cc(C(=O)N2CCC(N3CCN(C)CC3)CC2)ccc1Nc1ncc2c(n1)N(C1CCCC1)c1ccccc1C(=O)N2C` [ERK5-IN-1], in test [2], the “Residual Occupancy (Average) at 50 μM” value turned out to be 0.46 ± 0.02 fraction. Turning to `COc1cc(Nc2ncc(F)c(Nc3ccc4c(n3)N(COP(=O)(O)O)C(=O)C(C)(C)O4)n2)cc(OC)c1OC` [Fostamatinib (R788)], the remaining activity at 50 µM in test [3] was found to be 52%. With `Cc1[nH]c2ccccc2c1C1=C(NCCc2ccc(F)cc2)C(=O)N(C)C1=O` [IM-12], the remaining activity at 50 µM in test [3] was found to be 58%. In the case of `Cc1cc(Nc2ncc(Cl)c(Nc3ccccc3S(=O)(=O)C(C)C)n2)c(OC(C)C)cc1C1CCNCC1` [LDK378], the “Residual Occupancy (Average) at 50 μM” value in test [2] was 0.40 ± 0.03 fraction.

As usually defined, the IC50 is the concentration that inhibits the measured activity by half. With `Nc1ncnc2c1c(-c1cccc(OCc3ccccc3)c1)cn2[C@H]1C[C@@H](CN2CCC2)C1` [NVP-AEW541], the IC50 in test [4] amounted to 2400 nM. The remaining activity at 50 µM in test [3] turned out to be 19%. Turning to `Cc1c[nH]c2nc(Nc3ccc(N4CCN(C)CC4)c(F)c3)nc(-c3cccc(CC#N)c3)c12` [SGI-7079], the remaining activity at 50 µM in test [3] is 56%. For the molecule `N#C/C(=C(/N)Sc1ccc(N)cc1)c1ccccc1C(F)(F)F` [SL-327], the remaining activity at 50 µM in test [3] stood at 54%. One may read the EC50 as the concentration needed to bring the measured effect to its halfway point. For `CCOP(=O)(COc1cccc(-c2cn([C@H]3C[C@@H](CN4CCC4)C3)c3ncnc(N)c23)c1)OCC` [SMALS-323], the EC50 at LKB1/STRAD/MO25 trimer turned out to be 480 nM. As for `CCOP(C)(=O)COc1cccc(-c2cn([C@H]3C[C@@H](CN4CCC4)C3)c3ncnc(N)c23)c1` (stereo partly shown) [SMALS-357], at LKB1/STRAD/MO25 trimer, the EC50 is 5200 nM.

For `CN1CCN(CCOc2cc(OC3CCOCC3)c3c(Nc4c(Cl)ccc5c4OCO5)ncnc3c2)CC1` [Saracatinib], the “Residual Occupancy (Average) at 50 μM” value in test [2] is given as 0.36 ± 0.02 fraction.
